Columns and labels:
3T3-F442A preadipocytes = assay: In vitro differentiation of 3T3-F442A preadipocytes (Oil Red O staining); assay type: cell-based, mouse
Procedure: FIGS. 5A-5C are pictures of preadipocyte differentiation. FIG. 5A is a transillumination image of differentiated adipocytes in vitro. FIG. 5B is a fluorescence image of differentiated adipocytes in vivo. FIG. 5C is a picture showing the effect of PPARγ inhibition on adipogenesis. Preadipocytes (1×10^5 cells) were plated in a 6-well plate and transfected at a multiplicity of infection of 10^4 plaque forming units/cell using mock- (upper panels) or PPARγ-DN adenovirus (lower panels) and differentiation was promoted by using media containing 10% FBS.
FIG. 7A and 7B illustrate the effect of VEGF on preadipocyte differentiation and proliferation. To investigate the effects of VEGF on the in vitro differentiation of preadipocytes, 3T3-F442A cells were grown to confluence in media supplemented with calf serum (FCS, maintenance media), and exposed to increasing concentrations of murine recombinant VEGF164 (R&D Systems, Minneapolis, Minn.) from 0-100 ng/ml. […] Adipocyte differentiation was assessed by Oil Red O staining.
The bar indicates 50 μm. […] MTT assay was performed at day 4. […] Data are normalized to the control condition (FBS). Error bars represent standard error.
VEGFR2 expression was undetectable in the preadipocytes.

preadipocytes [1] = conditions: conditioned media from endothelial cells cultured in the presence of VEGF (50 ng/ml); day 11; normalized to SN control
Source text: Error bars represent standard error.
The media was changed every other day.

preadipocytes [2] = conditions: conditioned media from endothelial cells cultured in the presence of VEGF and IgG; MTT assay
Procedure: For MTT assays, mouse recombinant VEGF (50 ng/ml) and PBS, and rat IgG (1 μg/ml) were used. MTT assay was performed at day 4. The optical density values were normalized to that of the PBS treated cells and were used as a measure of viability (FIGS. 8B and 8C). MTT assay for preadipocytes after four days of culture with endothelial conditioned media. “FBS” denotes non-conditioned culture media with 10% FBS; “SN” denotes supernatant, endothelial conditioned media cultured with 10% FBS but no other additives; “SN/VEGF/IgG” denotes endothelial conditioned media cultured with 10% FBS, VEGF (50 ng/ml) and non-specific IgG (5 μg/ml). Data are normalized to the control condition (FBS). Error bars represent standard error.
To assess the paracrine effects of VEGF on cell proliferation, preadipocytes were plated as described for FIG. 8B with conditioned media from endothelial cells cultured in the presence of VEGF and IgG. At day 5, the assay was perform as described, and the optical density for the cells cultured in non-conditioned media was used as a measure of viability.

preadipocytes [3] = conditions: exogenous VEGF added to culture media, doses as high as 100 ng/ml; MTT assay
Procedure: For proliferation assays, 500 preadipocytes and fibroblasts were plated in 96 well plates, and mouse recombinant VEGF164 (50 ng/ml) and PBS were added (FIG. 7B). An MTT assay was performed at day 4, when the cells were still subconfluent in all wells. Culture media were changed with 100 μl of fresh media, and 10 μl of sterile tetrazolium salt, MTT (3[4,5-dimethylthiazol-2-yl]-2,5-diphenyl-tetrazolium bromide, Sigma) was added in each well and incubated for four hours at 37° C. Finally, 100 μl of 10% SDS were added, and after incubation at 37° C. overnight, the plate was read at 490 nm. The optical density values were normalized to that of the PBS treated cells and used as a measure of viability.
For MTT assays, mouse recombinant VEGF (50 ng/ml) and PBS, and rat IgG (1 μg/ml) were used. MTT assay was performed at day 4. The optical density values were normalized to that of the PBS treated cells and were used as a measure of viability (FIGS. 8B and 8C). MTT assay for preadipocytes after four days of culture with endothelial conditioned media. “FBS” denotes non-conditioned culture media with 10% FBS; “SN” denotes supernatant, endothelial conditioned media cultured with 10% FBS but no other additives; “SN/VEGF/IgG” denotes endothelial conditioned media cultured with 10% FBS, VEGF (50 ng/ml) and non-specific IgG (5 μg/ml). Data are normalized to the control condition (FBS). […]

VEGFR1 = VEGFR1 (Homo sapiens, UniProt P17948); conditions: cited from earlier work
VEGFR2 = VEGFR2 (Homo sapiens, UniProt P35968); conditions: cited from earlier work
Sequence of VEGFR2 (P35968 20-1356, species assumed): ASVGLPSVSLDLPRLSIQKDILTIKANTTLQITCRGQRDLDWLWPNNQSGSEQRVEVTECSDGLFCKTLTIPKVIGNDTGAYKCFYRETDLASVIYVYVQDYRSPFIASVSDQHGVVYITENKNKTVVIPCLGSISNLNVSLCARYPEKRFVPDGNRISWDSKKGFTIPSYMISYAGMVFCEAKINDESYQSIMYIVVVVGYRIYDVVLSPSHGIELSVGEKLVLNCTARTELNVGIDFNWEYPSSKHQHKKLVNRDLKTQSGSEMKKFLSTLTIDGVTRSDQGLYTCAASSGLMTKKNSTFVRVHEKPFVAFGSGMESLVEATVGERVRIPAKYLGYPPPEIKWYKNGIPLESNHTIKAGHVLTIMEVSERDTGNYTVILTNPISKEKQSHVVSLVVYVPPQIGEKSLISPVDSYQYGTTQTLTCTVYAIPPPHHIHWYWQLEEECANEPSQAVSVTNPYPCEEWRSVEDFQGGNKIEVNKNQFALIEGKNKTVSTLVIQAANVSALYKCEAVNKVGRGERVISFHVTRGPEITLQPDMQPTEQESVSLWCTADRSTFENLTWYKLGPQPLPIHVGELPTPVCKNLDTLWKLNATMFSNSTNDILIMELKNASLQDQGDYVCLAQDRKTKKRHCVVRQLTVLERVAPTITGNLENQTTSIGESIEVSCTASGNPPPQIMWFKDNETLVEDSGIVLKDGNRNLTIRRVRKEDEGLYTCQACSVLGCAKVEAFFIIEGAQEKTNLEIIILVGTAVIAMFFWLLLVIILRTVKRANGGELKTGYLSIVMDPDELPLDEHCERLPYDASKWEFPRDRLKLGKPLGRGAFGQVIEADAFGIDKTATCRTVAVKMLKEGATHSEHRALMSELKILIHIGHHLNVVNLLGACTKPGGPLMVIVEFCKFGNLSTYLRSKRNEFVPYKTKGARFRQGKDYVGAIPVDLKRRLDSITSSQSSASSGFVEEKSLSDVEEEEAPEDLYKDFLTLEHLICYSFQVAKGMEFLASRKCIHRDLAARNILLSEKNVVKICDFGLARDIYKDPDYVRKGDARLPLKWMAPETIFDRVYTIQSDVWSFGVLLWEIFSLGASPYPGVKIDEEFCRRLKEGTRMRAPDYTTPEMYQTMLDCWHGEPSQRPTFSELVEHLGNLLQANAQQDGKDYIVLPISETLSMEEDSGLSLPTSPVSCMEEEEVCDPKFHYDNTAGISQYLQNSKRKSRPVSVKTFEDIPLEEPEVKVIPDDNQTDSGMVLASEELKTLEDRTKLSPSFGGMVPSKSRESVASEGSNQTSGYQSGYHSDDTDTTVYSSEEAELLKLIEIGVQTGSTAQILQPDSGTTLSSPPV

Sequence of VEGFR1 (P17948 27-1338, species assumed): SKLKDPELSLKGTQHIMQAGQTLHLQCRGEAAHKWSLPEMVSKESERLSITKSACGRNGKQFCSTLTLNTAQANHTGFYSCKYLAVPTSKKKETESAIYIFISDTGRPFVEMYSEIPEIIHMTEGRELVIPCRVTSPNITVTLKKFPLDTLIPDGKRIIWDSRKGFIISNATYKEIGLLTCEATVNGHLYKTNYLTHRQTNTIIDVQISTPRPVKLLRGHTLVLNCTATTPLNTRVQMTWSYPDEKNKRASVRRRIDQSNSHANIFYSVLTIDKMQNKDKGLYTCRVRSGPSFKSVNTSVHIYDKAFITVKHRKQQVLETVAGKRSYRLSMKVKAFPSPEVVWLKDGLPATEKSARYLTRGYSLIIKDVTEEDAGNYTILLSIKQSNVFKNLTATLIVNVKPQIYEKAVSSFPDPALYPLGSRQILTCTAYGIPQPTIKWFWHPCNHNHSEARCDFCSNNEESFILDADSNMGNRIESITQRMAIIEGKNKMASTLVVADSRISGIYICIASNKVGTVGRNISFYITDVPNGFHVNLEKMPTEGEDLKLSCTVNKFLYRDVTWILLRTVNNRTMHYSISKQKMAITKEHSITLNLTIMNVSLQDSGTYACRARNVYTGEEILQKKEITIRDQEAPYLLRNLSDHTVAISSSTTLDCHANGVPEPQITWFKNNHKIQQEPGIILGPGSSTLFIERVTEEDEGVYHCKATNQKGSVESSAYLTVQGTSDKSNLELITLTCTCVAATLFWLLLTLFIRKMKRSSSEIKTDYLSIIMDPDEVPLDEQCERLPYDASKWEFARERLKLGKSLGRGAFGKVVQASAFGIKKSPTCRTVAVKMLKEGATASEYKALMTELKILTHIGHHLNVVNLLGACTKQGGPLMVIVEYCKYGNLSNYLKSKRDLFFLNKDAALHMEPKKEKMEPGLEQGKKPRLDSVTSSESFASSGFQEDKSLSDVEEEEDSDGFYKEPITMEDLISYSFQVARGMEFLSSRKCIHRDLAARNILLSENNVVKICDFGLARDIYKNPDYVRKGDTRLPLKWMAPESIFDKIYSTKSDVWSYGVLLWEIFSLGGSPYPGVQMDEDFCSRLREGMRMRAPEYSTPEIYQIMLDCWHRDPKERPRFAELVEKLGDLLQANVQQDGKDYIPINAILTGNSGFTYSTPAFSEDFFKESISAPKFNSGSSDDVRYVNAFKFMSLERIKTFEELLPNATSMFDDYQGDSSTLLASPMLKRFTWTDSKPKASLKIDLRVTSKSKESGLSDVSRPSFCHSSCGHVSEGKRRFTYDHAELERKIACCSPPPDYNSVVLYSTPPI

Compound	differentiation rate of preadipocytes (3T3-F442A preadipocytes; differentiation media (10% FBS), VEGF 0-100 ng/ml or 50 ng/ml, Oil Red O staining)	adipose cell differentiation in vitro (3T3-F442A preadipocytes; exogenous VEGF added to culture media, doses as high as 100 ng/ml)	induction of differentiation in preadipocytes (3T3-F442A preadipocytes; maintenance media (10% calf serum), VEGF 0-100 ng/ml or 50 ng/ml, Oil Red O staining)	aP2 expression (differentiation of preadipocytes) (preadipocytes [1])	preadipocyte survival/proliferation (preadipocytes [2])	adipose cell proliferation and survival in vitro (preadipocytes [3])	inhibition of VEGFR1 (VEGFR1)	inhibition of VEGFR2 (VEGFR2)
VEGF	did not increase the differentiation rate	not significantly affected	did not induce differentiation	almost three-fold increase	increased preadipocyte survival/proliferation	not significantly affected		
CCCNC(=O)Nc1ccc(Oc2ncnc3cc(OC)c(OC)cc23)cc1Cl [KRN633]							inhibits	inhibits

— patent US20060088882A1, “Methods for the treatment or prevention of obesity” (priority 2002, published 2006)
